Assay results taken from patent US10584116B2, “Heterocyclic sulfonamide derivative and medicine containing same” (EA Pharma Co., Ltd., priority 2016, dated 2020).

How the values were obtained:
human TRPA1 = human TRPA1 (Homo sapiens (Human), UniProt O75762); assay: Measurement of TRPA1 antagonist activity (intracellular calcium increase induced by allylisothiocyanate in 293T cells transfected with human TRPA1); format: cell-based; settings: 293T cells expressing human TRPA1, allylisothiocyanate stimulation, FLIPR Calcium4 fluorescence; read-out: hTRPA1 IC50
Chain of human TRPA1 (O75762 whole entry): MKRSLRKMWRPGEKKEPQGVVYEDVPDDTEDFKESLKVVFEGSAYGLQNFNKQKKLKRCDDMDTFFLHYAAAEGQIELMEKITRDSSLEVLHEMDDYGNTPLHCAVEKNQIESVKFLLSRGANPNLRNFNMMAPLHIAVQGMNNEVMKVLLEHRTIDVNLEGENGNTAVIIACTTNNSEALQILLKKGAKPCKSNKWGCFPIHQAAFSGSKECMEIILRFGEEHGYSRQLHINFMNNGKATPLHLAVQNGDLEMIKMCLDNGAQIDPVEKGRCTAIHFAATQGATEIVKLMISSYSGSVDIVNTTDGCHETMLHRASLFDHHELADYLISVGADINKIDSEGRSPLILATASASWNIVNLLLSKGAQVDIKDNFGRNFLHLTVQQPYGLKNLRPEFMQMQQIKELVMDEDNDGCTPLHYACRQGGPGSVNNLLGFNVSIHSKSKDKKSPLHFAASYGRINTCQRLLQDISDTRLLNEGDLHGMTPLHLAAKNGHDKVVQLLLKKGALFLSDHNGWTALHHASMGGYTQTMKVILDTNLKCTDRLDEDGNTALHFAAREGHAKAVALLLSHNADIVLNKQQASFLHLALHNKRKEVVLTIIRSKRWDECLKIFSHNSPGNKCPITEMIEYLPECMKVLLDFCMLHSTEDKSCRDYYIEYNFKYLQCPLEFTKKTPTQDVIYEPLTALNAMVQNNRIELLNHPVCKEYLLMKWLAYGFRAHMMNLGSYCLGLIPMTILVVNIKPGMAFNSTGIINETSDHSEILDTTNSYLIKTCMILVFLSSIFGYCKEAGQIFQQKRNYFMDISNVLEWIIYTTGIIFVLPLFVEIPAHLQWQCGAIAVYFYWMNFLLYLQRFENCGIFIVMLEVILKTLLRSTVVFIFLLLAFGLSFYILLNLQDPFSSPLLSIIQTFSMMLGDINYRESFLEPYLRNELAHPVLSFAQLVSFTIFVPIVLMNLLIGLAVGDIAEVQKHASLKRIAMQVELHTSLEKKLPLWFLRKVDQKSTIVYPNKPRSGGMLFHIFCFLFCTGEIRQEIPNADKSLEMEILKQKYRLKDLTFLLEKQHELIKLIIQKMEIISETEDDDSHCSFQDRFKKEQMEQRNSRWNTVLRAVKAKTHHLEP
Method: Measurement of TRPA1 Antagonist Activity
Human TRPA1 Expression Plasmid
Using cDNA encoding human TRPA1 (GenBank accession No. NM_007332) (manufactured by Kazusa DNA Research Institute, item No. FHC07217) as a template, primer 1 (SEQ ID NO: 1) and primer 2 (SEQ ID NO: 2), PCR by PfuUltra High-Fidelity DNA Polymerase (Stratagene) was performed, and full-length human TRPA1 gene was amplified.
A recognition site (underlined) of restriction enzyme HindIII was added to the 5′ end of human TRPA1 gene, and XbaI site (underlined) was added to the 3′ end of human TRPA1 gene, and GTT of the template sequence was changed to termination codon TAG (bold). The obtained double stranded DNA was enzyme-digested with HindIII and XbaI, and introduced into a multicloning site of expression plasmid pcDNA3.1/zeo(+) (manufactured by Invitrogen) to give a human TRPA1 expression plasmid.
Human embryonic kidney-derived 293T cells were cultured in Dulbecco's Modified Eagle Medium containing 10% fetal bovine serum, 10 unit penicillin, and 10 μg streptomycin. One day before assay, 3×10^6 of 293T cells were plated on a petri dish having a diameter of 10 cm, and cultured in a CO2 incubator for 24 hr. OPTI-MEM I Reduced Serum Media (Invitrogen) (600 μL), Mirus TransIT-293 (Mirus Bio) (18 μL), and human TRPA1 expression plasmid (6 μg) were mixed, the total amount of the mixture was added to the cells on the petri dish to allow for gene transfer. The cells were recovered about for 8 hr later, plated on a poly-D-lysine coated 384 well black/clear bottom plate at 12,000 cells/well, and cultured overnight.
Measurement of Intracellular Calcium Increase
The medium was removed from the 384 well plate, calcium indicator (Molecular Device, trade name: FLIPR Calcium4 Assay Kit) dissolved in HBSS (Thermo Fisher Scientific) (pH 7.2) containing 20 mM HEPES was added (38 μL/well), and the cells were stained in a CO2 incubator for 1 hr. The 384 well plate was stood at room temperature for not less than 15 min, set on FDSS7000 (Hamamatsu Photonics K.K.), and a test substance solution was added at 10 μL/well. After 10 min, allylisothiocyanate solution (12 μL/well) was added, the relative fluorescence intensity was measured for 5 min after addition of the allylisothiocyanate solution.
Test Substance Preparation
Preparation of Test Substance Solution and Allylisothiocyanate Solution
A test substance solution was prepared to have a composition of HBSS (Thermo Fisher Scientific) (pH 7.2) containing 0.48% dimethyl sulfoxide, a test substance at 4.8-fold concentration of the evaluation concentration, 0.1% bovine serum albumin and 20 mM HEPES. An allylisothiocyanate solution was prepared to have a composition of HBSS (Thermo Fisher Scientific) (pH 7.2) containing 0.1% dimethyl sulfoxide, 100 μM allylisothiocyanate, 0.1% bovine serum albumin and 20 mM HEPES.
Calculation of Antagonist Activity
The activity rate of a test substance at each concentration was calculated, wherein the relative fluorescence intensity change of a well free of a test substance and containing allylisothiocyanate is 100% activity rate, and the relative fluorescence intensity change of a well free of a test substance and allylisothiocyanate is 0% activity rate. The inhibitory rate of a test substance at each concentration was calculated by subtracting the activity rate of the test substance from 100% activity rate, and the concentration of a test substance showing 50% inhibitory rate was calculated as IC50 from the sigmoid approximate curve by XLfit (idbs).

TRPA1 channel = TRPA1 channel (Rattus norvegicus (Rat), UniProt Q6RI86); assay: AITC-induced rat blood flow evaluation test; format: in vivo; settings: for rat blood flow model (% inh.): oral, 60 min before AITC (1%) application to ear, male SD rats
Chain of TRPA1 channel (Q6RI86 whole entry): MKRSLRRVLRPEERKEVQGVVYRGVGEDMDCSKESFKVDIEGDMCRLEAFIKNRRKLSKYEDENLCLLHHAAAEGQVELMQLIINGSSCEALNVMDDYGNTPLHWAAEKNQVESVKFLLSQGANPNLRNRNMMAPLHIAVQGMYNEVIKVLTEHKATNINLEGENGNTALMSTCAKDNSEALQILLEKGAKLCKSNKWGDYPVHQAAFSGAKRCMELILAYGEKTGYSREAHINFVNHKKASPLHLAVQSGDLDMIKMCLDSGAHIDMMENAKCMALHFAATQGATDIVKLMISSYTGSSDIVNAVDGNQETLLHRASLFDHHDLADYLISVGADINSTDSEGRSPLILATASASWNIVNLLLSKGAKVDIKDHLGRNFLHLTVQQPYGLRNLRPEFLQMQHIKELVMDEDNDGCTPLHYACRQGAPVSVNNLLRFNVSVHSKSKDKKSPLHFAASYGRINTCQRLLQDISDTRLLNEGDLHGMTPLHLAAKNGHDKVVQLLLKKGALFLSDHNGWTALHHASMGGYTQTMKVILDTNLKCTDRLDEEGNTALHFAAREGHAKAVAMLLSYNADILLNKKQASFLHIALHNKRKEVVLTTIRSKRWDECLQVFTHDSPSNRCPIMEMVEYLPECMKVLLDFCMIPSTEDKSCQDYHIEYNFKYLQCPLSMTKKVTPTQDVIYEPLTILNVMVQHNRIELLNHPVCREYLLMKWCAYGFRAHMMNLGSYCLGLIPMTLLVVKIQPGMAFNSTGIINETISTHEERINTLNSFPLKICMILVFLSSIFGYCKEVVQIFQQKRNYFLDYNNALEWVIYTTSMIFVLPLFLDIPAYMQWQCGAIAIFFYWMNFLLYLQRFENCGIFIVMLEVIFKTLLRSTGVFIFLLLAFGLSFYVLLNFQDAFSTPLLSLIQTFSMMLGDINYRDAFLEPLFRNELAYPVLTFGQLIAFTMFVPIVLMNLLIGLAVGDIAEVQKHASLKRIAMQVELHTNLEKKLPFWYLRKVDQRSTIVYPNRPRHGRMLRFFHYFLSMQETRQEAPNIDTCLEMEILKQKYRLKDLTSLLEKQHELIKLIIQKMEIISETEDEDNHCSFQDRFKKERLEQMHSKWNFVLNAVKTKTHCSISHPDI
Method: AITC-Induced Rat Blood Flow Evaluation Test
To evaluate the effectiveness of the test substance in vivo, allylisothiocyanate (AITC)-induced blood flow evaluation test was performed using rat.
AITC is a selective agonist of the TRPA1 channel, and causes an increase in the peripheral blood flow through TRPA1 activation when applied to animal. Therefore, the intensity of the TRPA1 antagonist action of the test substance in the living body can be evaluated by measuring the increase in the peripheral blood flow after AITC application.
1. Administration of Test Substance to Animal
As the animal, 9-11-week-old male SD rats were used. A test substance was orally administered 60 min before AITC application and evaluated. On the previous day, the blood flow was measured when vehicle was administered to the same individual.
2. Evaluation of AITC-Induced Blood Flow
Under isoflurane anesthesia, the rats were placed in a prone position and a laser was irradiated with a probe of a laser Doppler flowmeter (OMEGA FLOW FLO-N1 neuro science, inc) at a distance of 1 cm from the ear of the rat, and the blood flow was measured, which was recorded using Power lab. After confirmation of stable blood flow, 15 μL of AITC (1%) solution was applied to be spread on the ear of the rat and the blood flow was measured for 20 min.
3. Calculatuin of Inhibitory Rate
Mean blood flow for 10 seconds at each analysis time point (1, 5, 10, 15, 20 min) was calculated, and the amount of change from the blood flow before AITC application was calculated as AUC (Area under the curve). AUC (% of baseline) was determined by normalizing the value obtained by (mean of AUC after test substance administration/mean of AUC after vehicle administration to the same individual)×100 with the ratio of AUC obtained by vehicle administration for the both days. The inhibition ratio was determined by 100−AUC (% of baseline).

SMILES: CC(C)n1c(=O)c(CNC(=O)[C@@H]2CCCN2S(=O)(=O)c2cc3ccccc3o2)cn(-c2ccc(C(F)(F)F)cc2)c1=O [Example 1, (2S)-1-(benzofuran-2-ylsulfonyl)-N-[[3-isopropyl-2,4-dioxo-1-[4-(trifluoromethyl)phenyl]pyrimidin-5-yl]methyl]pyrrolidine-2-carboxamide]
- IC50 (human TRPA1): 16 nM
- AITC-induced increase in the blood flow (TRPA1 channel; FIG. 1, rats, doses 0.3, 1 and 3 mg/kg): suppressed
- rat blood flow model (% inh.) (TRPA1 channel; dose 0.3 mg/kg): 45 % inh.
- rat blood flow model (% inh.) (TRPA1 channel; dose 1 mg/kg): 56 % inh.
- rat blood flow model (% inh.) (TRPA1 channel; dose 3 mg/kg): 58 % inh.

SMILES: CC(C)n1c(=O)c(CNC(=O)[C@@H]2CCCN2S(=O)(=O)c2cc3cnccc3o2)cn(-c2ccc(C(F)(F)F)cn2)c1=O [Example 36, (2S)-1-fro[3,2-c]pyridin-2-ylsulfonyl-N-[[3-isopropyl-2,4-dioxo-1-[5-(trifluoromethyl)-2-pyridyl]pyrimidin-5-yl]methyl]pyrrolidine-2-carboxamide]
- IC50 (human TRPA1): 200 nM

SMILES: CC(C)n1c(=O)c(CNC(=O)[C@@H]2CCCN2S(=O)(=O)c2cc3cc(F)ccc3o2)cn(-c2ccc(C(F)(F)F)cc2)c1=O [Example 3, (2S)-1-(5-fluorobenzofuran-2-yl)sulfonyl-N-[[3-isopropyl-2,4-dioxo-1-[4-(trifluoromethyl)phenyl]-pyrimidin-5-yl]methyl]pyrrolidine-2-carboxamide]
- IC50 (human TRPA1): 7.3 nM

SMILES: CC(C)n1c(=O)c(CNC(=O)[C@@H]2CC(F)(F)CN2S(=O)(=O)c2cc3cc(F)ccc3o2)cn(-c2ccc(C(F)(F)F)cc2)c1=O [Example 17, (2S)-4,4-difluoro-1-(5-fluorobenzofuran-2-yl)sulfonyl-N-[[3-isopropyl-2,4-dioxo-1-[4-(trifluoromethyl)phenyl]pyrimidin-5-yl]methyl]pyrrolidine-2-carboxamide]
- IC50 (human TRPA1): 46 nM

SMILES: CC(C)n1cc(CNC(=O)[C@@H]2CCCN2S(=O)(=O)c2cc3ccccc3o2)cc(-c2ccc(C(F)(F)F)nc2)c1=O [Example 48, (2S)-1-(benzofuran-2-ylsulfonyl)-N-[[1-isopropyl-6-oxo-5-[6-(trifluoromethyl)-3-pyridyl]-3-pyridyl]methyl]pyrrolidine-2-carboxamide]
- IC50 (human TRPA1): 210 nM

SMILES: CC(C)n1c(=O)c(CNC(=O)[C@@H]2C=CCN2S(=O)(=O)c2cc3cc(F)ccc3o2)cn(-c2ccc(C(F)(F)F)cc2)c1=O [Example 16, (2S)-1-(5-fluorobenzofuran-2-yl)sulfonyl-N-[[3-isopropyl-2,4-dioxo-1-[4-(trifluoromethyl)phenyl]-pyrimidin-5-yl]methyl]-2,5-dihydropyrrole-2-carboxamide]
- IC50 (human TRPA1): 3.6 nM

SMILES: CC(C)n1cc(CNC(=O)[C@@H]2CCCN2S(=O)(=O)c2cc3cc(F)ccc3o2)cc(-c2ccc(C(F)(F)F)cn2)c1=O [Example 51, (2S)-1-(5-fluorobenzofuran-2-yl)sulfonyl-N-[[1-isopropyl-6-oxo-5-[5-(trifluoromethyl)-2-pyridyl]-3-pyridyl]methyl]pyrrolidine-2-carboxamide]
- IC50 (human TRPA1): 81 nM

SMILES: CC(C)n1c(=O)c(CNC(=O)[C@@H]2CCCN2S(=O)(=O)c2cc3ccccc3o2)cn(-c2ccc(Cl)cc2)c1=O [Example 40, (2S)-1-(benzofuran-2-ylsulfonyl)-N-[[1-(4-chlorophenyl)-3-isopropyl-2,4-dioxo-pyrimidin-5-yl]methyl]pyrrolidine-2-carboxamide]
- IC50 (human TRPA1): 85 nM
